A melting point compilation (Tetko et al.; mined from patent text by program, amines drawn as free bases though some values may be those of a salt)

melting point | SMILES
310 °C | CN(Cc1ccccc1)C1=N/C(=C\c2c[nH]c3ncc(Cl)cc23)C(=O)N1
200 to 205 °C | NC(=S)c1cccc2c1CCCC2=O
211 to 212 °C | Nc1sc2c(c1C(=O)c1ccc3c(c1)OCO3)CCN(C(=O)c1ccccc1)C2
56 to 58 °C | CCCCNc1c(C(=O)OCC)c(C)nc2nccnc12
133 to 138 °C | CSc1ccc(CCOCCCCCC(C)NCC(O)c2ccc(O)c(NS(C)(=O)=O)c2)cc1 (centres undefined)
260 to 262 °C | Nc1ncnc2c1ncn2C(c1ccccc1)(c1ccccc1)c1ccccc1
158 to 160 °C | C=CC[C@H]1C(=O)N(S(=O)(=O)c2ccc3ccccc3c2)[C@H]2CCN(C(=O)OCc3ccccc3)[C@H]12 (relative stereo)
> 300 °C | CC(C)CCn1ccc(-c2ccc(NC3CCOCC3)cc2)c(Cl)c1=O
126 °C | COC(=O)[C@H](Cc1ccc(NC=O)cc1)NC(C)=O
63 to 64 °C | N#CC(C#N)=C1N(CCCN2CCCCC2)CCN1CCN1CCCC1
70 to 72 °C | Cc1ncc(-c2ccc(Cl)cc2)cc1C(=O)OC(C)(C)C
122 to 123 °C | CN(C(=O)OC(C)(C)C)c1cc(Oc2ccc(-c3ccccc3)cc2)ccc1N
> 380 °C | O=C(O)c1cc2sccc2nc1C(=O)O
159 to 160 °C | O=C(CCc1ccccc1)Nc1cc(-c2nnc(SCc3cccc(C(F)(F)F)c3)o2)ccn1
158 to 160 °C | COc1ccc2sc(C(N)=O)c(SCCN3CCOCC3)c2c1
168 to 170 °C | NS(=O)(=O)c1ccc(S(=O)(=O)CCCO)c([N+](=O)[O-])c1
183 to 184 °C | CC(C)(C)C(NC(=O)c1ccc(Cl)cc1F)NC(=NC#N)Nc1cccnc1 (centres undefined)
107 °C | CCOC(=O)C(=CC=C(SC)C(=O)c1ccc(Br)cc1)N(C)C
120 to 122 °C | O=C1CCNN1c1ccc(Cl)cc1
177 to 178 °C | CC(C)c1ccccc1Sc1c(O)cc(-c2cccc(Cl)c2)oc1=O
54.5 to 57.5 °C | CCCCCCCCNC(=O)Nc1nc2nc(NCCCN3CCN(C)CC3)ncc2cc1-c1c(Cl)cccc1Cl
232 to 233 °C | c1cnc2[nH]cc(CN3CCN(c4ccc5[nH]ccc5c4)CC3)c2c1
161 to 163 °C | Nc1ccc(CC(NC(=O)C(c2ccccc2)c2ccccc2)c2ccccc2)cc1 (centres undefined)
104 to 108 °C | COC(=O)C1=C(Cc2ccccc2)C(=O)NCC1
174 to 176 °C | CC(=O)NC[C@H]1CN(c2ccc(N3CCC(n4nnc(N5CCN(C)CC5)n4)CC3)c(F)c2)C(=O)O1

melting point | SMILES
145 to 147 °C | Cn1ccc(C(=O)c2ccc(Cc3ccc(F)cc3)o2)c(O)c1=O
74 to 83 °C | CC(C)OC(=O)C1CCCN1S(=O)(=O)c1ccc(N2CCC(NCC(O)COc3cccc4[nH]c(=O)[nH]c34)CC2)cc1 (centres undefined)
135 °C | CCOC(=O)C1=C(COCCNc2noc(N)n2)NC(C)=C(C(=O)OC)C1c1ccccc1Cl (centres undefined)
140 °C | O=c1oc(-c2ccccc2F)nc2c(Cl)ccc(Cl)c12
228 to 229 °C | O=c1oc2ccccc2cc1S(=O)(=O)Cc1ccc(Cl)cc1Cl
98.5 to 99.5 °C | C=C(C)C(=O)OC(c1ccccc1)(c1ccccc1)c1ccncc1
57 to 58 °C | CCCCCCCCCCC#CC#CCCCCCCCCC(=O)O
106 °C | N=c1sc2cc(OC(F)(F)F)ccc2n1CCCO
64.5 to 66.5 °C | N#CSCC(Cl)=C(Cl)CBr
78 to 79 °C | COC(=O)c1oc(C(C)(C)C)cc1NC(=O)Nc1ccc(C)cc1
232 to 233 °C | CCOc1ccc(Nc2n[nH]c3ncnc(Nc4cccc(Cl)c4)c23)cc1
133 to 134 °C | CCCc1nn(-c2ccc(C(F)(F)F)cn2)cc1CCCOc1c(CC(=O)O)cccc1OCC
151 to 153 °C | COC(=O)c1nc(N2CCCC2)ccc1Oc1nc(OC)cc(OC)n1
124 °C | CC(C)(C)OC(=O)N1CC[C@@H]2Nc3cccc(Br)c3[C@@H]2CC1 (relative stereo)
250 to 251 °C | CS(=O)(=O)N(c1ccc(C#Cc2cnn3c(C(F)(F)F)cc(-c4ccc(C(F)(F)F)cc4)nc23)cn1)S(C)(=O)=O
171 to 173 °C | CC1=Nc2c(-c3ccncc3)c(-c3ccc(F)cc3)nn2C(C)(C)C1
83 to 85 °C | CSc1ncnn1C[C@]1(c2ccc(F)c(F)c2)O[C@@H]1c1ccccc1C(F)(F)F (relative stereo)
170 to 171 °C | COc1ccc(CC(C(N)=O)S(C)=O)cc1C(=O)NCc1ccc(C(F)(F)F)cc1 (centres undefined)
142 to 144 °C | O=C(O)COc1cccc(COC(=O)N(c2ccccc2)c2ccccc2)c1
175 to 180 °C | CN(C)c1ccc(-c2cnc3[nH]cc(C(=O)N[C@@H](C(=O)N4CC(C#N)C4)C4CC4)c3n2)cc1
98 to 100 °C | CCOC(=O)c1cc(C(=O)c2ccc(C)cc2)n(C)c1C
> 265 °C | CCOCc1nc2c(N)nc3cc(O)ccc3c2n1CC(C)C
100 to 102 °C | CCOC(=O)C(=O)CC(=O)c1c(-c2ccccc2)cc2ccccn12
234 to 236 °C | COc1ccc(N2C[C@@H](COS(C)(=O)=O)OC2=O)cc1
167 to 169 °C | COc1cc(C(=O)NS(=O)(=O)c2ccccc2)ccc1Cn1ncc2ccc(NC(=O)CC3CCCC3)cc21

melting point | SMILES
125 to 128 °C | Cn1cc(C2=C(c3cn(CCCNS(=O)(=O)c4ccccc4)c4ccccc34)C(=O)NC2=O)c2ccccc21
194 to 196 °C | COc1ccc(C(=O)Nc2ccccc2)cc1NC(=S)Nc1ccc(C(F)(F)F)cc1
85 to 87 °C | COC(=O)c1cccc(-c2ccc(OC)c(OC3CCCC3)c2)c1
175 °C | COc1ccc2ccc(N3C(=O)c4ccccc4C3OCC(=O)NC3CCCCC3)nc2n1 (centres undefined)
95 to 97 °C | CC(=O)OCC(C)(C(=O)OC(C)(C)C)C(=O)c1ccccc1 (centres undefined)
188 °C | CCOC(=O)C(=O)Nc1ccc(C#N)cc1
133 to 134 °C | CS(=O)(=O)Nc1cc(-c2ncc(C(F)(F)F)cc2Cl)ccc1Cl
172 to 174 °C | O=C1CC2(CN1)CC(O)c1cc(Cl)ccc12 (centres undefined)
61 to 63 °C | C=CCOc1ccc2c(C)cc(=O)oc2c1C(=O)C=Cc1cccc(OC)c1
172 to 174 °C | CCCCc1oc2ccccc2c1-c1ncc(-c2ccc3c(Br)c(O)ccc3c2)o1
172 to 174 °C | C=C(c1ccccc1OC(C)c1ccccc1)n1ccnc1 (centres undefined)
235 to 237 °C | O=C1CCC(N2C(=O)c3cccc(Nc4ccc5ccccc5c4)c3C2=O)C(=O)N1 (centres undefined)
112 to 119 °C | CN(C)c1ccc(/C=C/C(=O)CC(=O)/C=C/c2ccc3cc[nH]c3c2)cc1
250 to 255 °C | CC(C)c1nc2c([nH]1)C(=O)N1CCN=C1N2Cc1ccccc1Cl
184 to 186 °C | CSc1ncc(C=O)c(N)n1
100 to 125 °C | C=C(CC1(CC)C(=O)CCC1=O)C1=CCCc2cc(OC)ccc21
210 to 212 °C | Oc1cccc(C=Cc2ccc3ccccc3n2)c1
134 to 136 °C | O=c1c(Cl)nsnc1Oc1cccnc1
218 to 219 °C | CC(=O)NCC1CN(c2cc(F)c(-c3cccnc3)c(F)c2)C(=O)O1 (centres undefined)
69 to 71 °C | CCOC(=O)c1cc(=O)c2c(OCC(O)CSC)cccc2o1 (centres undefined)
179 °C | CC(C)(C)OC(=O)N1CCC2(Cc3ccc(C#N)cc3)C(=O)N(c3cc(Cl)nc(Cl)c3)C(=O)N12 (centres undefined)
93 to 96 °C | COc1ccc(C2=NN(CC(=O)c3ccccc3OC)C(=O)[C@H]3CCCC[C@@H]23)cc1OC (relative stereo)
206 to 209 °C | CC(C)c1ccc(N2Cc3ccc(Cl)cc3C2=O)cc1
157 to 158 °C | CCCC1CC(=O)c2c(NC(=O)C(=O)O)ccc(C)c21 (centres undefined)
121 to 122 °C | Clc1nc(Cl)c2sc(Cl)nc2n1

melting point | SMILES
78 to 79 °C | COc1cc(C#N)ccc1C(Br)Br
68 to 70 °C | Cc1cccc(SC2=C(O)CC(CCc3ccccc3)(c3ccccc3)OC2=O)c1 (centres undefined)
165 to 167 °C | O=[N+]([O-])c1cnc2cc(Cl)ccc2c1Cl
39 to 40 °C | c1ccc(CSc2nc3ccccc3s2)cc1
100 °C | COc1cc2c(cc1OC)CN(CCCOc1ccc([N+](=O)[O-])cc1)CC2
174 to 176 °C | CC(=O)N1CCC(C(=NNc2ccccc2)c2ccc(Br)cc2F)CC1
110 to 111 °C | O=C(O)CCc1cn(Cc2ccc(OCc3ccoc3)cc2)cc1-c1ccccc1
193 to 195 °C | Cc1cc(C(=N)NO)cn2cc(-c3cccc(-c4ccc(C(=N)NO)cc4)c3)nc12
57.5 to 58.5 °C | CCCCCCCCCCCCC1=CC(=O)c2c(Cl)cccc2C1=O
209 to 210 °C | Cc1c(C#N)sc2nc(-c3ccc(Cl)cc3)nc(N3CCN(C)CC3)c12
> 250 °C | O=c1ccc(S(=O)(=O)c2cc3cc(Cl)ccc3[nH]2)n[nH]1
158 to 159 °C | CC12CCC(O)CC1CCC1C2C(=NO)CC2(C)C1CCC21OCCO1 (centres undefined)
267 to 271 °C | COc1ccc2nc(COc3ccc(CC4SC(=O)NC4=O)cc3)n(C)c2c1 (centres undefined)
115 to 117 °C | CC(=O)N1CCc2cc(S(=O)(=O)n3c(CCCC(=O)O)cc4cc(Cl)ccc43)ccc21
> 250 °C | NC(=O)N1CCN(c2ccc(O)c(O)c2)C1=O
213 to 215 °C | Cc1nc2c(c3c1[nH]c1cccc(F)c13)C(=O)CC(C(C)C)C2 (centres undefined)
67 to 68 °C | C=CCNC(=S)Cc1ccccn1
73 to 74 °C | CCOC(=O)c1c(N)nc(C)c(C(=O)CCCCCCCCCCBr)c1-c1cccc([N+](=O)[O-])c1
150 to 152 °C | [O-][N+](=CC=Cc1ccccc1)c1ccccc1
222 to 223 °C | CC(=O)NC[C@H]1CN(c2ccc(-n3cc(-c4ccc(C)cc4)cn3)c(F)c2)C(=O)O1
136 to 138 °C | NC(=O)c1cc2cc(OCC(O)CCl)ccc2o1 (centres undefined)
109 to 111 °C | COc1cc(OC)c2c(=O)n(CCCN3CCCC3)c(-c3cc(C)c(OCCCN4CCCC4)c(C)c3)nc2c1

SMILES | melting point
[N-]=[N+]=CC(=O)[C@H](O)[C@@H](O)[C@@H](O)CO | 93 to 94 °C
Fc1ccc2[nH]cc(C3=CCN(CC4COc5ccc6[nH]c(C(F)(F)F)nc6c5O4)CC3)c2c1 (centres undefined) | 236 to 238 °C
